Assays:
Format in all cases: cell-based
[1] = tested on: S. epidermidis; assay: MIC of clinical trial isolates, Studies 373, 433, 434; conditions: Staphylococcus epidermidis, all phenotypes, N 111
[2] = tested on: Staphylococcus lugdunensis; assay: as above; conditions: N 8
[3] = tested on: Streptococcus salivarius; assay: as above; conditions: N 9
[4] = tested on: Corynebacterium striatum; assay: as above; conditions: N 8
[5] = tested on: H. influenzae; assay: as above; conditions: Haemophilus influenzae, all phenotypes, N 344
Procedure: (§1) PFGE testing was performed per standard procedures.
(§2) The antibacterial susceptibility profile of each Visit 1 bacterial isolate was determined for besifloxacin and other antimicrobials.

[6] = tested on: S. mitis group; assay: as above; conditions: Streptococcus mitis group, N 45
Procedure: as §1, §2

[7] = tested on: S. pneumoniae; assay: as above; conditions: Streptococcus pneumoniae, all phenotypes, N 302
Procedure: as §1, §2

[8] = tested on: CDC coryneform group G; assay: as above; conditions: N 29
Procedure: as §1, §2

[9] = tested on: Streptococcus oralis; assay: as above; conditions: N 18
Procedure: as §1, §2

[10] = tested on: Staphylococcus hominis; assay: as above; conditions: N 9
[11] = tested on: Streptococcus mitis; assay: as above; conditions: Streptococcus mitis (listed separately from S. mitis group), N 20
Procedure: PFGE testing was performed per standard procedures. […] Analysis Populations

[12] = tested on: Corynebacterium pseudodiphtheriticum; assay: as above; conditions: N 8
[13] = tested on: S. aureus; assay: as above; conditions: Staphylococcus aureus, all phenotypes, N 190
[14] = tested on: baseline pathogens of bacterial conjunctivitis patients; assay: MIC of baseline clinical trial isolates, Studies 373, 433, 434 (all species)

COc1c(N2CCNC(C)C2)c(F)cc2c(=O)c(C(=O)O)cn(C3CC3)c12 (centres unmarked) [GATI]
MIC50 [1]: 0.125 µg/mL
MIC90 [1]: 2 µg/mL
MIC50 [2]: 0.25 µg/mL
MIC Range [2]: 0.25 to 2 µg/mL
MIC50 [3]: 0.5 µg/mL
MIC Range [3]: 0.5 to 2 µg/mL
MIC50 [4]: 0.03 µg/mL
MIC Range [4]: 0.015 to 2 µg/mL
MIC50 [5]: 0.015 µg/mL
MIC90 [5]: 0.03 µg/mL
MIC Range [5]: ≦0.004-0.5 μg/mL
MIC50 [6]: 0.5 µg/mL
MIC90 [6]: 0.5 µg/mL
MIC Range [6]: 0.06 to 2 µg/mL
MIC50 [7]: 0.25 µg/mL
MIC90 [7]: 0.5 µg/mL
MIC Range [7]: 0.125 to 1 µg/mL
MIC50 [8]: 0.06 µg/mL
MIC90 [8]: 0.5 µg/mL
MIC Range [8]: 0.03 to 8 µg/mL
MIC50 [9]: 0.5 µg/mL
MIC90 [9]: 1 µg/mL
MIC Range [9]: 0.03 to 1 µg/mL
MIC50 [10]: 0.125 µg/mL
MIC Range [10]: 0.06 to 2 µg/mL
MIC50 [11]: 0.5 µg/mL
MIC90 [11]: 1 µg/mL
MIC Range [11]: 0.25 to 1 µg/mL
MIC50 [12]: 0.5 µg/mL
MIC Range [12]: 0.06 to 0.5 µg/mL
MIC50 [13]: 0.125 µg/mL
MIC90 [13]: 4 µg/mL
MIC50 ([14]; All organisms, N 1324): 0.125 µg/mL
MIC90 ([14]; All organisms, N 1324): 0.5 µg/mL
MIC50 ([14]; Gram-negative, N 438): 0.015 µg/mL
MIC90 ([14]; Gram-negative, N 438): 0.25 µg/mL
MIC Range ([14]; Gram-negative, N 438): ≦0.004-8 μg/mL
MIC50 ([14]; Gram-positive, N 886): 0.25 µg/mL
MIC90 ([14]; Gram-positive, N 886): 1 µg/mL

C[C@H]1COc2c(N3CCN(C)CC3)c(F)cc3c(=O)c(C(=O)O)cn1c23 [LEVO]
MIC50 [1]: 0.25 µg/mL
MIC90 [1]: 8 µg/mL
MIC50 [2]: 0.25 µg/mL
MIC Range [2]: 0.25 to 2 µg/mL
MIC50 [3]: 1 µg/mL
MIC Range [3]: 1 to 2 µg/mL
MIC50 [4]: 0.06 µg/mL
MIC Range [4]: 0.03 to 4 µg/mL
MIC50 [5]: 0.03 µg/mL
MIC90 [5]: 0.03 µg/mL
MIC Range [5]: ≦0.004-1 μg/mL
MIC50 [6]: 1 µg/mL
MIC90 [6]: 2 µg/mL
MIC50 [7]: 0.5 µg/mL
MIC90 [7]: 1 µg/mL
MIC Range [7]: 0.125 to 2 µg/mL
MIC50 [8]: 0.06 µg/mL
MIC90 [8]: 1 µg/mL
MIC50 [9]: 1 µg/mL
MIC90 [9]: 2 µg/mL
MIC Range [9]: 0.125 to 2 µg/mL
MIC50 [10]: 0.125 µg/mL
MIC Range [10]: 0.125 to 4 µg/mL
MIC50 [11]: 1 µg/mL
MIC90 [11]: 1 µg/mL
MIC Range [11]: 0.5 to 2 µg/mL
MIC50 [12]: 0.5 µg/mL
MIC Range [12]: 0.06 to 1 µg/mL
MIC50 [13]: 0.25 µg/mL
MIC90 [13]: 8 µg/mL
MIC50 ([14]; All organisms, N 1324): 0.25 µg/mL
MIC90 ([14]; All organisms, N 1324): 1 µg/mL
MIC50 ([14]; Gram-negative, N 438): 0.03 µg/mL
MIC90 ([14]; Gram-negative, N 438): 0.125 µg/mL
MIC Range ([14]; Gram-negative, N 438): ≦0.004-8 μg/mL
MIC50 ([14]; Gram-positive, N 886): 0.5 µg/mL
MIC90 ([14]; Gram-positive, N 886): 2 µg/mL

CC1COc2c(N3CCN(C)CC3)c(F)cc3c(=O)c(C(=O)O)cn1c23 (centres unmarked) [OFLOX]
MIC50 [1]: 0.5 µg/mL
MIC90 [1]: >8 µg/mL
MIC Range [1]: 0.25 µg/mL
MIC50 [2]: 1 µg/mL
MIC50 [3]: 2 µg/mL
MIC Range [3]: 2 to 4 µg/mL
MIC50 [4]: 0.125 µg/mL
MIC50 [5]: 0.03 µg/mL
MIC90 [5]: 0.06 µg/mL
MIC50 [6]: 2 µg/mL
MIC90 [6]: 4 µg/mL
MIC Range [6]: 0.25 µg/mL
MIC50 [7]: 1 µg/mL
MIC90 [7]: 2 µg/mL
MIC50 [8]: 0.125 µg/mL
MIC90 [8]: 2 µg/mL
MIC50 [9]: 2 µg/mL
MIC90 [9]: 4 µg/mL
MIC Range [9]: 0.125 µg/mL
MIC50 [10]: 0.25 µg/mL
MIC Range [10]: 0.25 µg/mL
MIC50 [11]: 2 µg/mL
MIC90 [11]: 2 µg/mL
MIC Range [11]: 1 to 4 µg/mL
MIC50 [12]: 1 µg/mL
MIC Range [12]: 0.125 to 2 µg/mL
MIC50 [13]: 0.5 µg/mL
MIC90 [13]: >8 µg/mL
MIC50 ([14]; All organisms, N 1324): 0.5 µg/mL
MIC90 ([14]; All organisms, N 1324): 2 µg/mL
MIC50 ([14]; Gram-negative, N 438): 0.03 µg/mL
MIC90 ([14]; Gram-negative, N 438): 0.25 µg/mL
MIC50 ([14]; Gram-positive, N 886): 1 µg/mL
MIC90 ([14]; Gram-positive, N 886): 4 µg/mL

From patent US8415342B2, “Besifloxacin ophthalmic composition for the treatment or control of infection” (Bausch & Lomb Incorporated, priority 2008, dated 2013)
